For test [1], the target named is T1, calpain-1 from human erythrocytes (Homo sapiens, UniProt P07384).
T1 construct: calpain-1 from human erythrocytes; purchased Merck Millipore 208713; host or cells: human erythrocytes (natural source)
T1 sequence (P07384 1-714): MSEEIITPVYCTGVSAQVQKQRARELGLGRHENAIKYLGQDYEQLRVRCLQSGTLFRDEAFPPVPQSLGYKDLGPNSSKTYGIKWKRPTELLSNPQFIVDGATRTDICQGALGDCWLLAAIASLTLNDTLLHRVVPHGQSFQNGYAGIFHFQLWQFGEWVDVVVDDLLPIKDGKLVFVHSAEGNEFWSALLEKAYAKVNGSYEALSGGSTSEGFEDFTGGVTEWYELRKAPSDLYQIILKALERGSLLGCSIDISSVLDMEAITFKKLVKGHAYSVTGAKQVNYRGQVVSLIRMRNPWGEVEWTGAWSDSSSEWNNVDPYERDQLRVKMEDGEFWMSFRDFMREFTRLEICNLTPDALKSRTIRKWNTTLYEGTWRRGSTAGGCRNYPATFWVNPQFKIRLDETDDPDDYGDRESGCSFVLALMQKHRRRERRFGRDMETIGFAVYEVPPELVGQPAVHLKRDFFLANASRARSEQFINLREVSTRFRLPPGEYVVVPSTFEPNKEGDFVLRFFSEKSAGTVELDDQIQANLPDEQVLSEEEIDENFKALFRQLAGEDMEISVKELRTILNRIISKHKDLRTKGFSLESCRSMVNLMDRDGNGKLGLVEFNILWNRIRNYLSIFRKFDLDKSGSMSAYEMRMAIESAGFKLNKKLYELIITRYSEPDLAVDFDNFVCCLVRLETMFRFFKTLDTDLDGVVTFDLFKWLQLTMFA
T1 sequence (P04632 1-268 partner): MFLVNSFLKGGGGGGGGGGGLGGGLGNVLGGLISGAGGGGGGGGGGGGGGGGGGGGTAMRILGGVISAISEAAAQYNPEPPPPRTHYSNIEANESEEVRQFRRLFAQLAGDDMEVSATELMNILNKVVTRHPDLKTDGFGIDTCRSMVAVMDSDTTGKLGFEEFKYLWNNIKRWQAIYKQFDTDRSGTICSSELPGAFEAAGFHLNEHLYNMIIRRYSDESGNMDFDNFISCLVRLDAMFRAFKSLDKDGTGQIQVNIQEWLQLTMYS
Nature of the test: Fluorescence assay with calpain-1. It counts as biochemical. Conditions: 10 μM probe, 17.4 U/mL calpain-1, 5 mM CaCl2, 37° C., excitation 475 nm, fluorescence 500-550 nm; for increase in fluorescence intensity 10 minutes after the addition of calpain-1: FIG. 5(b). The procedure: The fluorescence assays of Compound 19 and Compound 16 with time were performed. Specifically, 17.4 U/mL of calpain-1 and 5 mM CaCl2 were added to a 50 mM TRIS buffer (pH: 7.4, 2 mM EGTA, 2 mM DTE) containing 10 μM of each of the synthesized fluorescent probes to perform an enzyme reaction at 37° C. Each of the compounds to which calpain-1 and CaCl2 were not added was similarly subjected as a negative control to the measurement.
The fluorescence assays of Compounds 16 to 36 were similarly performed. 50 Units per milliliter (Compounds 16 and 19 to 25) or 17.4 U/mL (Compounds 16 to 18 and 26 to 36) of calpain-1 and 5 mM CaCl2 were added to a 50 mM TRIS buffer (pH: 7.4, 2 mM EGTA, 2 mM DTE) containing 10 μM of each of the synthesized fluorescent probes to perform an enzyme reaction at 37° C.
Next, similar fluorescence assays of Compounds 37, 42, 45, 48, 51, 53, 55, 57, and 59 with calpain-1 were performed. Specifically, 17.4 U/mL of calpain-1 and 5 mM CaCl2 were added to a 50 mM TRIS buffer (pH: 7.4, 2 mM EGTA, 2 mM DTE) containing 10 μM of each of the synthesized fluorescent probes to perform an enzyme reaction at 37° C. Each of the compounds to which calpain-1 was not added was used as a control.
To evaluate an influence of a R^12-L-O— group on the reactivity of each of compounds having the same amino acids with calpain-1, the fluorescence assays of Compounds 37 to 66 with calpain-1 were performed in accordance with the above-mentioned method. Specifically, 17.4 U/mL of calpain-1 and 5 mM CaCl2 were added to a 50 mM TRIS buffer (pH: 7.4, 2 mM EGTA, 2 mM DTE) containing 10 μM of each of the synthesized fluorescent probes to perform an enzyme reaction at 37° C., followed by the measurement of an increase in fluorescence intensity of each of the compounds 10 minutes after the addition of calpain-1.

The test system of the next test is SH-SY5Y cells. Nature of the test: Live cell imaging of calpain activity in SH-SY5Y cells. In kind it is cell-based. Conditions: 5 μM probe, 10 minutes incubation, confocal microscope; FIG. 12. On the procedure: Whether or not the improvement in enzymatic reactivity between the compound of the present invention and a calpain confirmed by the above-mentioned experiment remained the same even in a cell was verified. Calpain activity imaging in SH-SY5Y cells was performed on each of Compounds 16 and 19. Specifically, the SH-SY5Y cells (American Type Culture Collection, VA, USA) were cultured in a mixed medium of Dulbecco's modified eagle medium and Ham's F-12 medium (DMEM/F-12; Thermo Fisher Scientific, Inc.) (containing 10% fetal bovine serum (FBS; Thermo Fisher Scientific, Inc., MA, USA) and 100 U/mL penicillin-100 μg/mL streptomycin (PS; Thermo Fisher Scientific, Inc.)) under the conditions of 37° C. and 5% CO2-95% air. 6×10^4 to 8×10^4 Cells/well of the cells were seeded in a multiwell plate (μ-Plate 96 Well; ibidi, Grafelfing, Germany) coated with poly-D-lysine (Thermo Fisher Scientific, Inc.) and laminin (BD Biosciences, CA, USA), and were preincubated in a culture solution. Immediately after the removal of the culture solution in the wells, 200 μL of an assay solution (a culture solution containing a 5 μM probe) was added thereto, and the cells were incubated under the conditions of 37° C. and 5% CO2-95% air. 10 Minutes after that, a bright field image and a fluorescence image were taken with a confocal microscope (LSM 710, Carl Zeiss AG, Oberkochen, Germany).
Calpain activity imaging in SH-SY5Y cells was performed on each of Compounds 20 to 23, Compound 38, and Compound 56 in the same manner as in Example 9. In the case of each of Compounds 20 to 23 and Compound 38, a bright field image and a fluorescence image were taken after 30 minutes of incubation of the cells, and in the case of Compound 56, such images were taken after 20 minutes of incubation thereof.

The next test deals with calpain. Nature of the test: Rabbit NMDA injury model, ocular fundus imaging. In kind it is in vivo. Particulars: for staining of nerve cells with HMRG in ocular fundus: 30, 45 and 60 minutes after probe into the eye (Compound 19 18.3 μM 19 μL; Compound 16 20 μM 19 μl or 38 μl). On the procedure: Black Dutch rabbits were each subjected to general anesthesia with a mixed liquid of ketamine and xylazine. N-Methyl-D-aspartate (NMDA) (12 mM, 50 μL) or PBS was administered into an eye of the rabbit. 9 Hours after that, the rabbit was anesthetized with a mixed liquid of ketamine and xylazine again, and Compound 19 (18.3 μM, 19 μL), Compound 16 (20 μM, 19 μl), or Compound 16 (20 μM, 38 μl) was administered into the eye. Images of an ocular fundus were taken with Mirante (a confocal scanning diode laser ophthalmoscope manufactured by Nidek Co., Ltd.) before the administration of each of the compounds and after the lapse of a predetermined time from the administration.

Experimental findings from patent US20240279710A1, “FLUORESCENT PROBES” (TOHOKU TECHNO ARCH CO., LTD., priority 2021, published 2024) are described below.

For the compound `CSCC[C@H](NC(=O)[C@H](CC(C)C)NC(C)=O)C(=O)Nc1ccc2c(c1)Oc1cc(N)ccc1C21OCc2ccccc21` (stereo partly shown) [Compound 16, reference compound], the “change in fluorescence intensity with time by calpain-1” value in test [1] (FIG. 4) is given as “functioned as a fluorescent probe for calpain-1”. Moreover, the “calpain activity imaging in SH-SY5Y cells” value in the test on SH-SY5Y cells was “enabled the observation of calpain activity in the SH-SY5Y cells”. For the same compound, in the test on calpain (Compound 19 (19 μL) and Compound 16 (38 μl), FIG. 23), the “number of HMRG-positive cells in PBS rabbits compared to NMDA rabbits” value is “significantly reduced”. Further, the “staining of nerve cells with HMRG in ocular fundus” value is on record as “many nerve cells were clearly stained with HMRG” with calpain (rabbits administered NMDA (12 mM, 50 μL)) and “substantially no staining of the nerve cells with HMRG” in the test with calpain (rabbits administered PBS).

For `CCC(=O)N[C@@H](CC(C)C)C(=O)N[C@@H](CCSC)C(=O)Nc1ccc2c(c1)Oc1cc(N)ccc1C21OCc2ccccc21` (stereo partly shown) [Compound 17], in test [1], the “increase in fluorescence intensity 10 minutes after the addition of calpain-1” value is given as “reduced in fluorescence intensity as compared to Compound 16”.

In the case of `CCCC(=O)N[C@@H](CC(C)C)C(=O)N[C@@H](CCSC)C(=O)Nc1ccc2c(c1)Oc1cc(N)ccc1C21OCc2ccccc21` (stereo partly shown) [Compound 18], the “increase in fluorescence intensity 10 minutes after the addition of calpain-1” value in test [1] is “reduced in fluorescence intensity as compared to Compound 16”.
